12 molecules from PubChem BioAssay AID194 (DTP/NCI, 2004) can be followed below.

“And” between values parts separate entries of the source, which are not always exact repeats. Equal values may be shown once. Inconclusive results are not listed.

This test has as its system BDF1 mice, B16 melanoma s.c., survival/tumor T/C. Briefly: NCI In Vivo Anticancer Drug Screen. Data for tumor model B16 Melanoma (subcutaneous) in B6D2F1 (BDF1) mice. The method, then: The antitumor activity of compounds was measured in mice bearing transplantable tumors. Survival or tumor size were measured and the results are expressed as the measurement made in the treated group (T) divided by the measurement made in the vehicle treated control group (C). The tumor model used in this assay is B16 Melanoma (subcutaneous) in B6D2F1 (BDF1) mice

The mark [1] stands for this setting: endpoint: median survival time, dose: 1.0 mg/kg/injection, schedule: Q01DX009 (ip), vehicle: saline with Tween-80, higher = longer survival.
Setting [2] is: endpoint: median survival time, dose: 64.0 mg/kg/injection, schedule: Q01DX009 (ip), vehicle: Klucel (hydroxypropylcellulose) (HPC), higher = longer survival.

`COc1cccc2c1C(=O)c1c(O)c3c(c(O)c1C2=O)C[C@@](O)(C(=O)COC(=O)Cc1cccc2ccccc12)C[C@@H]3OC1CC(N)C(O)C(C)O1` (some centres undefined): the T/C runs as follows: under setting [1], 111 % of control; (endpoint: median survival time, dose: 2.0 mg/kg/injection, schedule: Q01DX009 (ip), vehicle: saline with Tween-80, higher = longer survival) 114 % of control; (endpoint: median survival time, dose: 4.0 mg/kg/injection, schedule: Q01DX009 (ip), vehicle: saline with Tween-80, higher = longer survival) 94 % of control.

Turning to `NC(C/[N+]([O-])=N/O)C(=O)O` (centres undefined), the T/C reads like this: (endpoint: median survival time, dose: 8.75 mg/kg/injection, schedule: Q01DX010 (ip), vehicle: alkali diluted with saline, higher = longer survival) 96 % of control; (endpoint: median survival time, dose: 8.78 mg/kg/injection, schedule: Q01DX010 (ip), vehicle: alkali diluted with saline, higher = longer survival) 100 % of control; (endpoint: median survival time, dose: 13.2 mg/kg/injection, schedule: Q01DX010 (ip), vehicle: alkali diluted with saline, higher = longer survival) 152 % of control and 154 % of control; (endpoint: median survival time, dose: 29.6 mg/kg/injection, schedule: Q01DX010 (ip), vehicle: alkali diluted with saline, higher = longer survival) 93 % of control and 96 % of control; (endpoint: median survival time, dose: 40.0 mg/kg/injection, schedule: Q01DX009 (ip), vehicle: Klucel (hydroxypropylcellulose) (HPC), higher = longer survival) 103 % of control; (endpoint: median survival time, dose: 44.4 mg/kg/injection, schedule: Q01DX010 (ip), vehicle: alkali diluted with saline, higher = longer survival) 104 % of control. Further, the T/C reads like this: (endpoint: median survival time, dose: 66.7 mg/kg/injection, schedule: Q01DX010 (ip), vehicle: alkali diluted with saline, higher = longer survival) 122 % of control; (endpoint: median survival time, dose: 300.0 mg/kg/injection, schedule: Q01DX001 (ip), vehicle: Klucel (hydroxypropylcellulose) (HPC), higher = longer survival) 87 % of control; (endpoint: median survival time, dose: 300.0 mg/kg/injection, schedule: Q04DX003 (ip), vehicle: Klucel (hydroxypropylcellulose) (HPC), higher = longer survival) 93 % of control; (endpoint: median survival time, dose: 500.0 mg/kg/injection, schedule: Q01DX001 (ip), vehicle: Klucel (hydroxypropylcellulose) (HPC), higher = longer survival) 97 % of control.

As for `CC(C)CCC[C@@H](C)[C@H]1CC[C@H]2[C@@H]3CC=C4C[C@@H](O)CC[C@]4(C)[C@H]3CC[C@]12C`, the T/C is, setting by setting: (endpoint: median survival time, dose: 12.5 mg/kg/injection, schedule: Q01DX009 (ip), vehicle: other, higher = longer survival) 120 % of control; (endpoint: median survival time, dose: 25.0 mg/kg/injection, schedule: Q01DX009 (ip), vehicle: other, higher = longer survival) 96 % of control; (endpoint: median survival time, dose: 50.0 mg/kg/injection, schedule: Q01DX009 (ip), vehicle: other, higher = longer survival) 119 % of control.

As to `O=C(O)CCCc1ccc(N(CCCl)CCCl)cc1`, the T/C by setting is: (endpoint: median survival time, dose: 1.5 mg/kg/injection, schedule: Q01DX009 (ip), vehicle: Klucel (hydroxypropylcellulose) (HPC), higher = longer survival) 111 % of control; (endpoint: median survival time, dose: 3.0 mg/kg/injection, schedule: Q01DX009 (ip), vehicle: Klucel (hydroxypropylcellulose) (HPC), higher = longer survival) 105 % of control; (endpoint: median survival time, dose: 4.0 mg/kg/injection, schedule: Q01DX009 (ip), vehicle: Klucel (hydroxypropylcellulose) (HPC), higher = longer survival) 121 % of control; (endpoint: median survival time, dose: 6.0 mg/kg/injection, schedule: Q01DX009 (ip), vehicle: Klucel (hydroxypropylcellulose) (HPC), higher = longer survival) 101 % of control; (endpoint: median survival time, dose: 8.0 mg/kg/injection, schedule: Q01DX009 (ip), vehicle: Klucel (hydroxypropylcellulose) (HPC), higher = longer survival) 102 % of control; (endpoint: median survival time, dose: 12.0 mg/kg/injection, schedule: Q01DX009 (ip), vehicle: Klucel (hydroxypropylcellulose) (HPC), higher = longer survival) 97 % of control. The T/C (endpoint: median tumor weight (est.), dose: 4.0 mg/kg/injection, schedule: Q01DX009 (ip), vehicle: saline with Tween-80, higher = larger tumour) was 61 % of control and the T/C (endpoint: median tumor weight (est.), dose: 8.0 mg/kg/injection, schedule: Q01DX009 (ip), vehicle: saline with Tween-80, higher = larger tumour) was 25 % of control.

Turning to `C[CH2][Ge]1([CH2]C)[CH2]CC2(CCN(CCCN(C)C)C2)C[CH2]1`, the T/C is 96 % of control (endpoint: median survival time, dose: 2.0 mg/kg/injection, schedule: Q02DX009 (ip), vehicle: saline, higher = longer survival); 98 % of control (endpoint: median survival time, dose: 4.0 mg/kg/injection, schedule: Q01DX009 (ip), vehicle: saline, higher = longer survival); 110 % of control (endpoint: median survival time, dose: 4.0 mg/kg/injection, schedule: Q02DX009 (ip), vehicle: saline, higher = longer survival); 101 % of control (endpoint: median survival time, dose: 8.0 mg/kg/injection, schedule: Q01DX009 (ip), vehicle: saline, higher = longer survival); 102 % of control (endpoint: median survival time, dose: 8.0 mg/kg/injection, schedule: Q02DX009 (ip), vehicle: saline, higher = longer survival); 98 % of control (endpoint: median survival time, dose: 16.0 mg/kg/injection, schedule: Q01DX009 (ip), vehicle: saline, higher = longer survival). For the same molecule, the T/C is, setting by setting: (endpoint: median survival time, dose: 16.0 mg/kg/injection, schedule: Q02DX009 (ip), vehicle: saline, higher = longer survival) 111 % of control; (endpoint: median survival time, dose: 32.0 mg/kg/injection, schedule: Q01DX009 (ip), vehicle: saline, higher = longer survival) 112 % of control; (endpoint: median survival time, dose: 32.0 mg/kg/injection, schedule: Q02DX009 (ip), vehicle: saline, higher = longer survival) 109 % of control; (endpoint: median survival time, dose: 64.0 mg/kg/injection, schedule: Q01DX009 (ip), vehicle: saline, higher = longer survival) 97 % of control.

Regarding `O=P(OCC(Br)CBr)(OCC(Br)CBr)OCC(Br)CBr` (centres undefined), the T/C reads like this: (endpoint: median survival time, dose: 50.0 mg/kg/injection, schedule: Q01DX009 (ip), vehicle: saline with Tween-80, higher = longer survival) 110 % of control; (endpoint: median survival time, dose: 100.0 mg/kg/injection, schedule: Q01DX009 (ip), vehicle: saline with Tween-80, higher = longer survival) 114 % of control; (endpoint: median survival time, dose: 200.0 mg/kg/injection, schedule: Q01DX009 (ip), vehicle: saline with Tween-80, higher = longer survival) 98 % of control; (endpoint: median survival time, dose: 400.0 mg/kg/injection, schedule: Q01DX009 (ip), vehicle: saline with Tween-80, higher = longer survival) 105 % of control.

On to `COc1cc2c(c(OC)c1OC)-c1cc3c(cc1[C@@H](OC(C)=O)[C@@H]1COC(=O)[C@H]1C2)OCO3`, for which the T/C is 100 % of control (endpoint: median survival time, dose: 0.62 mg/kg/injection, schedule: Q01DX009 (ip), vehicle: Klucel (hydroxypropylcellulose) (HPC), higher = longer survival); 88 % of control and 89 % of control (endpoint: median survival time, dose: 1.25 mg/kg/injection, schedule: Q01DX009 (ip), vehicle: Klucel (hydroxypropylcellulose) (HPC), higher = longer survival); 97 % of control (endpoint: median survival time, dose: 2.5 mg/kg/injection, schedule: Q01DX009 (ip), vehicle: Klucel (hydroxypropylcellulose) (HPC), higher = longer survival); 105 % of control and 116 % of control (endpoint: median survival time, dose: 5.0 mg/kg/injection, schedule: Q01DX009 (ip), vehicle: Klucel (hydroxypropylcellulose) (HPC), higher = longer survival); 109 % of control (endpoint: median survival time, dose: 10.0 mg/kg/injection, schedule: Q01DX009 (ip), vehicle: Klucel (hydroxypropylcellulose) (HPC), higher = longer survival).

Turning to `CCCCCCCC(=O)OCC(=O)[C@]1(O)Cc2c(O)c3c(c(O)c2[C@@H](OC2CC(N)C(O)C(C)O2)C1)C(=O)c1c(OC)cccc1C3=O` (some centres undefined), the T/C runs as follows: (endpoint: median survival time, dose: 0.5 mg/kg/injection, schedule: Q01DX009 (ip), vehicle: saline with Tween-80, higher = longer survival) 98 % of control; under setting [1], 109 % of control.

Regarding `COc1ccc(CCN2C(=O)CSC2=S)cc1OC`, the T/C by setting is: (endpoint: median survival time, dose: 25.0 mg/kg/injection, schedule: Q01DX009 (ip), vehicle: Klucel (hydroxypropylcellulose) (HPC), higher = longer survival) 120 % of control; (endpoint: median survival time, dose: 50.0 mg/kg/injection, schedule: Q01DX009 (ip), vehicle: Klucel (hydroxypropylcellulose) (HPC), higher = longer survival) 123 % of control; (endpoint: median survival time, dose: 100.0 mg/kg/injection, schedule: Q01DX009 (ip), vehicle: Klucel (hydroxypropylcellulose) (HPC), higher = longer survival) 116 % of control.

For `Cc1cc2oc(=O)c3c(c2c(O)c1CN1CCN(C)CC1)CCCC3`, the T/C under setting [2] is 110 % of control and the T/C (endpoint: median survival time, dose: 128.0 mg/kg/injection, schedule: Q01DX009 (ip), vehicle: Klucel (hydroxypropylcellulose) (HPC), higher = longer survival) was 113 % of control.

As for `C[C@@H](CN1CC(=O)NC(=O)C1)N1CC(=O)NC(=O)C1`, the T/C runs as follows: (endpoint: median survival time, dose: 6.25 mg/kg/injection, schedule: Q04DX003 (ip), vehicle: saline, higher = longer survival) 91 % of control; (endpoint: median survival time, dose: 12.5 mg/kg/injection, schedule: Q04DX003 (ip), vehicle: saline, higher = longer survival) 97 % of control; (endpoint: median survival time, dose: 16.0 mg/kg/injection, schedule: Q01DX009 (ip), vehicle: Klucel (hydroxypropylcellulose) (HPC), higher = longer survival) 100 % of control; (endpoint: median survival time, dose: 16.0 mg/kg/injection, schedule: Q01DX009 (ip), vehicle: water, higher = longer survival) 117 % of control; (endpoint: median survival time, dose: 25.0 mg/kg/injection, schedule: Q04DX003 (ip), vehicle: saline, higher = longer survival) 107 % of control; (endpoint: median survival time, dose: 32.0 mg/kg/injection, schedule: Q01DX009 (ip), vehicle: Klucel (hydroxypropylcellulose) (HPC), higher = longer survival) 110 % of control. For the same molecule, the T/C reads like this: under setting [2], 168 % of control; (endpoint: median survival time, dose: 100.0 mg/kg/injection, schedule: Q04DX003 (ip), vehicle: saline, higher = longer survival) 119 % of control; (endpoint: median survival time, dose: 200.0 mg/kg/injection, schedule: Q04DX003 (ip), vehicle: saline, higher = longer survival) 115 % of control; (endpoint: median survival time, dose: 400.0 mg/kg/injection, schedule: Q04DX003 (ip), vehicle: saline, higher = longer survival) 108 % of control; (endpoint: median survival time, dose: 800.0 mg/kg/injection, schedule: Q04DX003 (ip), vehicle: saline, higher = longer survival) 119 % of control.

Consider `CC1(C)OCC(CO)(Nc2nc(N3CC3)nc(N3CC3)n2)CO1`, for which the T/C was 112 % of control (endpoint: median survival time, dose: 1.7 mg/kg/injection, schedule: Q01DX009 (ip), vehicle: saline, higher = longer survival); 104 % of control (endpoint: median survival time, dose: 2.5 mg/kg/injection, schedule: Q01DX009 (ip), vehicle: saline, higher = longer survival); 88 % of control (endpoint: median survival time, dose: 3.8 mg/kg/injection, schedule: Q01DX009 (ip), vehicle: saline, higher = longer survival).
